Measurements from US5407918A, “16-membered macrolide derivatives and process for producing the same” (Meiji Seika Kaisha, Ltd., priority 1992, dated 1995).

Legend:
[1] = oral, man and dog; cited from earlier work
esterase = conditions: in vivo; cited from earlier work
[2] = concentration in serum after oral administration to mice, bioassay; assay type: in vivo, mice (Jcl:ICR); conditions: mouse, serum, 200 mg/kg, M. luteus bioassay, read-out: maximum concentration in the serum
Outline: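 Male 4-week-old Jcl:ICR mice dosed orally with compound suspended in 0.2% CMC (4 mg/ml, 1 ml; another compound at 200 mg/kg). Serum sampled 30-360 min (n=2), diluted 1:1 in CH3CN-phosphate pH 7.0; concentration measured by M. luteus ATCC9341 agar-well bioassay (32 °C, 18 h) against a calibration curve.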

[3] = recovery in urine after oral administration to mice, bioassay; assay type: in vivo; conditions: mouse, 200 mg/kg oral (compound (3)), urine 4 and 24 hours
Method: Subsequently, 200 mg/kg of the compound (3) was orally administered to three mice in the same manner as described above.
The three mice were put in a metabolic cage MM type (Sugiyamagen Company, Tokyo, Japan) and urine was collected 4 and 24 hours after the administration of the test compound. The collected urine was filtered through a filter having a pore size of 0.45 μm (Millipore) and was mixed with an equivalent volume of 50% CH3CN-50 mM phosphate (1:1 by volume) buffer (pH 6.5) to serve as a urine sample. The bioassay was carried out in the same manner as described above to determine the concentration of the test compound in the urine sample. The recovering in the urine was calculated according to the following equation. [formula]

[4] = Journal of Antibiotics, 36 (4), 442 (1983); cited from earlier work

| Cmax [2] [ng/mL] | dose excreted at 24 h [3] [%] | Compound | major metabolite with a cleaved lactone ring [1] | metabolism of the two acyl groups in the neutral sugar moiety (esterase) | sustained antimicrobial activity in rat plasma compared with spiramycin I [4] |
| --- | --- | --- | --- | --- | --- |
| 2900 | < 2 | CCCC(=O)O[C@H]1[C@H](C)O[C@@H](O[C@H]2[C@H](N(C)C)[C@@H](O)[C@H](O[C@H]3[C@@H](CC=O)C[C@@H](C)[C@@H](O)/C=C/C=C/C[C@@H](C)OC(=O)C[C@@H](O)[C@@H]3OC)O[C@@H]2C)C[C@@]1(C)OC(=O)CC [RKM, rokitamycin, reference compound] | no compound with a cleaved lactone ring has been reported as a major metabolite | removed with esterase in vivo |  |
|  |  | CO[C@@H]1[C@@H](O[C@@H]2O[C@H](C)[C@@H](O[C@H]3C[C@@](C)(O)[C@@H](O)[C@H](C)O3)[C@H](N(C)C)[C@H]2O)[C@@H](CC=O)C[C@@H](C)[C@@H](O[C@H]2CC[C@H](N(C)C)[C@@H](C)O2)/C=C/C=C/C[C@@H](C)OC(=O)C[C@H]1OC(C)=O [spiramycin II] |  |  | shows a sustained antimicrobial activity in rat plasma |
